Test results reported in publication PMC8428694, “Structural characterization of the Plasmodium falciparum lactate transporter PfFNT alone and in complex with antimalarial compound MMV007839 reveals its inhibition mechanism” (PLoS Biology, 2021).

B1: Plasmodium falciparum formate–nitrite transporter (PfFNT) (natural protein, P. falciparum, UniProt O77389 1-309, looked up)
chain: MPPNNSKYVLDPVSIKSVCGGEESYIRCVEYGKKKAHYSNLNLLAKAILAGMFVGLCAHASGIAGGLFYYHKLREIVGASMSVFVYGFTFPIAFMCIICTGSDLFTGNTLAVTMALYEKKVKLLDYLRVMTISLFGNYVGAVSFAFFVSYLSGAFTNVHAVEKNHFFQFLNDIAEKKVHHTFVECVSLAVGCNIFVCLAVYFVLTLKDGAGYVFSVFFAVYAFAIAGYEHIIANIYTLNIALMVNTKITVYQAYIKNLLPTLLGNYIAGAIVLGLPLYFIYKEHYYNFERSKRDNNDAQMKSLSIELRN
notes: PfFNT, lactate transporter of P. falciparum, UniProt O77389, encoded by pf3D7_0316600; full-length protein from codon-optimized cDNA; residues 7 to 293 of each protomer were assigned to the density map; Homopentamer in the cryo-EM structures; also called P. falciparum lactate transporter; wild-type PfFNT

Columns and labels:
[1] = biological target: T1, P. falciparum formate–nitrite transporter (PfFNT) (Plasmodium falciparum, UniProt O77389, T106A); test: ITC with purified mutant protein; format: binding
T1 construct: gene PF3D7_0316600; PfFNT T106A mutant, purified as wild type (full-length, N-terminal Strep-tag)

[2] = biological target: T2, P. falciparum formate–nitrite transporter (PfFNT) (Plasmodium falciparum, UniProt O77389); test: ITC with purified protein; cryo-EM structure of the complex at […] Å; format: binding
T2 construct: gene PF3D7_0316600; full-length PfFNT, N-terminal Strep-tag; residues 7 to 293 modelled (apo structure); homopentamer

[3] = biological target: the molecule itself; test: cryo-EM structure; purified PfFNT in GDN detergent (25 mM Tris pH 8.0, 150 mM NaCl, 0.06% GDN), incubated with 250 mM sodium lactate before grid preparation (no lactate density: apo form); C5 symmetry; 2.3 Å

Row | Molecule | Kd [1] [nM] | Kd [2] [nM] | stoichiometry N [3]
1 | COc1ccc2c(c1)OC(O)(C(F)(F)C(F)(F)F)CC2=O (stereo not drawn) [MMV007839] | 80.8 | ~7.18 | –
2 | B1 | – | – | 5
